Results: PubChem BioAssay AID608 (Sanford-Burnham Center for Chemical Genomics, 2007)
Values joined by “and” are separate entries in the source; they are usually repeats but may differ in a detail not shown here. Identical values can stand only once. Active and inactive are the calls of the source. The rule behind the calls is not given here.

target: Peptidyl-prolyl cis-trans isomerase FKBP1A (Homo sapiens) (UniProt P62942); experiment: small-molecule binding to FKBP12 – biophysical, NMR detection (AID 608); conditions: purified FKBP12
Sequence (P62942 whole entry, looked up): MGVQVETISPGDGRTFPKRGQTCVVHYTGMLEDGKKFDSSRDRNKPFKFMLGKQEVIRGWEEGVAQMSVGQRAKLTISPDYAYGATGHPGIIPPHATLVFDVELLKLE

SMILES	Kd
Cc1sc2nc[nH]c(=S)c2c1C	> 4 mM (inactive)
CC(C)CCCC1(C)C=Cc2c(O)c3c(c(CCC(C)C)c2O1)OC12C(CC4CC1C(C)(C)OC2(CCC(C)C(=O)O)C4O)C3=O (stereo not given)	> 4 mM (inactive)
O=C(NC(=S)NCc1cccnc1)c1ccco1	> 4 mM (inactive)
Cc1cccc(OCc2nnc(N)s2)c1	> 4 mM (inactive)
O=C1CNC(=O)N1Cc1ccc(F)cc1	> 4 mM (inactive)
Cc1cc(=O)n2[nH]c(C)cc2n1	> 4 mM (inactive)
O=c1cccc2n1CC1CC2CN2CCCC[C@@H]12 (stereo not given in full)	> 4 mM (inactive)
COc1cc(OC)c2c(OC)c(-c3ccc4c(c3)OCO4)c(=O)oc2c1	> 4 mM (inactive)
COCC(=O)OCn1nnc2ccccc2c1=O	> 4 mM (inactive)
Cn1nnc2cc(CN)ccc21	> 4 mM (inactive)
O=c1c(O)c(-c2ccccc2)oc2cc(O)ccc12	> 4 mM (inactive)
O=C(NCc1cccc(Cl)c1)c1ccco1	> 4 mM (inactive)
CCN1CCc2c(sc(N)c2C(N)=O)C1	> 4 mM (inactive)
Brc1cccc(-c2nnco2)c1	> 4 mM (inactive)
CC(C)=CCCC1(C)C=Cc2c(O)c3c(c(CC=C(C)C)c2O1)OC12C(=CCCC1C(C)(C)O[C@@]2(C/C=C(\C)C(=O)O)C(=O)O)C3=O (stereo not given in full)	> 4 mM (inactive)
CCOC(=O)CSc1nnc(C)c(=O)[nH]1	> 4 mM (inactive)
Cc1cc(Oc2ccccc2)nc(N)n1	> 4 mM (inactive)
CCC(=O)Oc1ccc(N2C(=O)CCC2=O)cc1	> 4 mM (inactive)
CCOC(=O)CC1NCCNC1=O (stereo not given)	> 4 mM (inactive)
Cc1ccc(SCc2nc(-c3cccnc3)no2)cc1	> 4 mM (inactive)
COc1ccc(C(=O)NNC(=S)NC(C)=O)cc1	> 4 mM (inactive)
Clc1ccc(SCCn2cncn2)cc1	> 4 mM (inactive)
O=C(Nc1ccccc1C(F)(F)F)c1cnccn1	> 4 mM (inactive)

SMILES	Kd
O=C(CN1CCOCC1)Nc1cccc(Br)c1	> 4 mM (inactive)
COC(=O)c1ccccc1NC(=O)c1cc[n+]([O-])cc1	> 4 mM (inactive)
Nc1ccc(Cc2ccc(N)cc2)cc1	> 4 mM (inactive)
O=C1NC(=O)/C(=C\c2ccncc2)S1	> 4 mM (inactive)
Nc1cncc(C(=O)O)c1	> 4 mM (inactive)
O=[N+]([O-])c1cccc(CN2CCC(O)CC2)c1	> 4 mM (inactive)
c1ccc(CCN2CCN(CCc3ccccn3)CC2)nc1	> 4 mM (inactive)
COc1cc(O)c2c(=O)c(O)c(-c3ccc(O)c(O)c3)oc2c1	> 4 mM (inactive)
COc1c(-c2ccccc2)oc2c(OC)cccc2c1=O	> 4 mM (inactive)
Cc1ccc(-c2nn3c(C)nnc3s2)cc1N	> 4 mM (inactive)
c1nnc2c3c4c(sc3ncn12)CCCC4	> 4 mM (inactive)
COc1ccc(C2CC(=O)c3ccc(OC)cc3O2)cc1 (stereo not given)	> 4 mM (inactive)
CCOC(=O)c1csc(C2COc3ccccc3O2)n1 (stereo not given)	> 4 mM (inactive)
O=S(=O)(Nc1cc(Cl)cc(Cl)c1)N1CCOCC1	inactive
CN1CCN(C2CCN(Cc3ccccc3)CC2)CC1	> 4 mM (inactive)
O=C(O)C1Cc2ccccc2N1 (stereo not given)	> 4 mM (inactive)
CSc1nnc(-c2ccccc2NC(C)=O)o1	> 4 mM (inactive)
O=C1NC(=O)/C(=C/c2ccc(O)cc2)N1	> 4 mM (inactive)
CCCCN1C(=O)N(C)C2NC(=O)NC21 (stereo not given)	> 4 mM (inactive)
COC(=O)C(O)[C@@H]1C2(C)C(=O)[C@@H](CC3=C4CC(=O)O[C@@H](c5ccoc5)[C@]4(C)CCC32)[C@H](OC(C)=O)C1(C)C (stereo not given in full)	> 4 mM (inactive)
COc1cc(O)c2c(=O)cc(-c3ccc(OC)c(-c4c(O)cc(O)c5c(=O)cc(-c6ccc(O)cc6)oc45)c3)oc2c1	> 4 mM (inactive)
O=C(Oc1ccc(-c2nnco2)cc1)N1CCOCC1	> 4 mM (inactive)
O=C(C1COc2ccccc2O1)N1CCOCC1 (stereo not given)	inactive

SMILES	Kd
NC(=O)c1cn(-c2ccccc2)nc1-c1cccnc1	> 4 mM (inactive)
Cn1ncc(N2CCOCC2)c(Cl)c1=O	> 4 mM (inactive)
C=C1C2CC[C@@]3(C)[C@H](c4ccoc4)OC(=O)C[C@]13O[C@H]1CC(=O)C(C)(C)[C@H](C(O)C(=O)OC)[C@@]21C (stereo not given in full)	> 4 mM (inactive)
O=c1cc(-c2ccccc2)oc2c(O)c(O)ccc12	> 4 mM (inactive)
C=C(C)[C@H]1CC=C(C(=O)O)CC1	> 4 mM (inactive)
Oc1ccc2nonc2c1	> 4 mM (inactive)
Cc1cc(O)cc(=O)o1	> 4 mM (inactive)
Cc1ccc(OCC(=O)N2CCOCC2)c(C)c1	inactive
O=C(COc1ccccc1Cl)N1CCCC1	> 4 mM (inactive)
COc1ccc(C)cc1S(=O)(=O)Nc1ccccc1C	> 4 mM (inactive)
CN(C(N)=O)C1(C)CCS(=O)(=O)C1 (stereo not given)	> 4 mM (inactive)
OCc1sccc1-n1cccc1	> 4 mM (inactive)
CC(=O)OC[C@H]1O[C@@H](Oc2cc(OC(C)=O)c3c(=O)cc(-c4ccc(OC(C)=O)cc4)oc3c2)[C@H](OC(C)=O)[C@@H](OC(C)=O)[C@@H]1OC(C)=O	> 4 mM (inactive)
COc1ccccc1NC(C)=O	> 4 mM (inactive)
CC(C)=CCc1c2c(c3occ(-c4ccc(O)c(O)c4)c(=O)c3c1O)C=CC(C)(C)O2	> 4 mM (inactive)
O=C(O)CSCc1ccc(Cl)cc1	> 4 mM (inactive)
CC(=O)Nc1cnn(Cc2ccc(Br)cc2)c1	> 4 mM (inactive)
CCOC(=O)c1c(C)cc(O)cc1O	> 4 mM (inactive)
CO[C@H]1[C@@H](O)[C@@H](C)O[C@H](O[C@H]2CCC3(C)C4CCC5(C)[C@@H](C6=CC(=O)OC6)CC[C@]5(O)[C@@H]4CC[C@]3(O)C2)[C@@H]1O (stereo not given in full)	> 4 mM (inactive)
O=C(Nn1cnnc1)c1cccc(C(F)(F)F)c1	> 4 mM (inactive)
OCC(O)Cc1ccc2c(c1)OCO2 (stereo not given)	> 4 mM (inactive)
O=C(CSc1ncccn1)NCc1ccco1	> 4 mM (inactive)
CNC(Cc1c[nH]c2ccccc12)C(=O)O (stereo not given)	> 4 mM (inactive)

SMILES	Kd
O=c1c(-c2ccco2)[n+]([O-])c2ccccc2n1O	> 4 mM (inactive)
O=S1(=O)C=C(Nc2ccccc2)CC1	0.135 mM
CCOC(=O)CNC(=O)CSc1nnc(C)c(=O)[nH]1	> 4 mM (inactive)
Cc1csc(NC(=O)c2ccoc2C)n1	> 4 mM (inactive)
O=C(c1ccco1)N1CCCN(C(=O)c2ccco2)CC1	0.072 mM and 0.277 mM
CSc1nnc2c(n1)OC(C)=Nc1ccccc1-2	> 4 mM (inactive)
CN1CCC(NC(=O)c2cnccn2)CC1	> 4 mM (inactive)
Cc1ccc(C)n1CCN1CCNCC1	> 4 mM (inactive)
NC(=O)c1ccsc1NC(=O)C1=COCCO1	> 4 mM (inactive)
Cn1c([O-])c([N+](C)(C)C)c(=O)n(C)c1=O	> 4 mM (inactive)
CCSc1nc(N)c(NC(=O)c2ccco2)c(=O)[nH]1	> 4 mM (inactive)
NCCCCN=C(N)N	> 4 mM (inactive)
Cc1nc(-c2ccccc2)sc1CO	> 4 mM (inactive)
COc1ccc(C(N)=O)cc1NC(C)=O	> 4 mM (inactive)
O=C(/C=C(\O)c1ccccc1)c1ccccc1O	> 4 mM (inactive)
Cc1n[nH]c(C)c1N	> 4 mM (inactive)
COC(=O)CSc1nnc(-c2ccc(C(=O)O)cc2)o1	> 4 mM (inactive)
Cc1ccc(C(=O)NCCO)c(Cl)c1	> 4 mM (inactive)
CSc1ccccc1NC(=O)c1c(C)noc1C	> 4 mM (inactive)
CCc1cc(=O)[nH]c(SCC(=O)NCCOC)n1	> 4 mM (inactive)
C=C1CSc2nc(=O)c3c(C)c(C)sc3n21	> 4 mM (inactive)
O=C(c1ccncc1)N1CCN(C(=O)c2ccncc2)CC1	> 4 mM (inactive)
C[C@]12CC(=O)C3C(CC[C@@H]4C[C@H](O)CC[C@]34C)C1CC[C@]2(O)C(=O)CO (stereo not given in full)	> 4 mM (inactive)

SMILES	Kd
OCc1ccc2ncccc2c1	> 4 mM (inactive)
CC(=O)O[C@H]1C(=O)[C@@]2(C)C([C@H](OC(=O)c3ccccc3)[C@]3(O)C[C@H](OC(=O)[C@H](O)[C@@H](NC(=O)c4ccccc4)c4ccccc4)C(C)=C1C3(C)C)[C@]1(OC(C)=O)CO[C@@H]1C[C@@H]2O (stereo not given in full)	> 4 mM (inactive)
Cc1nc2cc(NC(=O)Nc3nccs3)ccc2n1C	> 4 mM (inactive)
O=[N+]([O-])c1cccc2c1nnn2C(CO)OCCO (stereo not given)	> 4 mM (inactive)
CN1CCC(NC(=O)c2ccccc2[N+](=O)[O-])CC1	> 4 mM (inactive)
CC(O)(C(=O)O)c1ccccc1 (stereo not given)	> 4 mM (inactive)
Cc1sc2nc(SC3CCOC3=O)[nH]c(=O)c2c1C (stereo not given)	> 4 mM (inactive)
Nc1ncnc(NC2CCS(=O)(=O)C2)c1[N+](=O)[O-] (stereo not given)	> 4 mM (inactive)
Cc1nnc(NCCO)[nH]c1=O	> 4 mM (inactive)
O=C(c1ccco1)N1CCN(c2ccc(Cl)cc2)CC1	> 4 mM (inactive)
COC(=O)c1ccc(N2CCOCC2)nc1	> 4 mM (inactive)
Nc1ncnc2c1ncn2C1C[C@H](O)[C@@H](CO)O1 (stereo not given in full)	> 4 mM (inactive)
NC(=O)Cn1nnc(-c2ccc(C(F)(F)F)cc2)n1	> 4 mM (inactive)
O=C(NCc1cccnc1)c1ccccn1	> 4 mM (inactive)
Cc1ccc(/C=C/C(=O)O)cc1S(=O)(=O)NCCO	> 4 mM (inactive)
C[n+]1ccn(C/C(N)=N/O)c1	> 4 mM (inactive)
COC(=O)c1ccc(C(=S)N2CCOCC2)cc1	> 4 mM (inactive)
COCC(=O)NC1CC(C)(C)NC(C)(C)C1	> 4 mM (inactive)
Cc1ccccc1NC(=O)CC1SC(N)=NC1=O (stereo not given)	> 4 mM (inactive)
COC(=O)c1cc(-c2c(C)nn(-c3ccccc3)c2C)n[nH]1	> 4 mM (inactive)
CC1=NN(c2ccc(N)cc2)C(=O)C1	> 4 mM (inactive)
COC(=O)C[C@H]1C(C)(C)C(=O)[C@@H]2CC3=C4CC(=O)O[C@@H](c5ccoc5)[C@]4(C)CCC3C1(C)C2=O (stereo not given in full)	> 4 mM (inactive)
Cc1noc(C)c1C(=O)NCc1ccco1	> 4 mM (inactive)
